Source: patent US8791158B2, “Methods of treating meibomian gland dysfunction” (GTX, Inc., priority 2010, dated 2014)
Where two headings read alike, the source gives them in different places. Marks after values point to notes of the source that are not given here.

Key:
[1] = test system: orchiectomized (ORX) rabbits; experiment: Dose effect on palmitate:stearate ratio in tears, harderian and Meibomian glands, Example 5; type: in vivo, rabbit; settings: for Palmitate:stearate ratio in Meibomian gland / Palmitate:stearate ratio in harderian gland / Palmitate:Stearate Ratio in Tears: ORX rabbits; for Palmitate:stearate ratio in Meibomian gland / Palmitate:stearate ratio in harderian gland: mean; for Increase of lipid (palmitate:stearate) ratio in harderian glands: topical 1.25 mg/kg (highest dose tested); for Change in Meibomian gland lipids / Dose dependence of palmitate:stearate ratio in harderian glands / Dose dependence of palmitate:stearate ratio in tears: topical 0.625 and 1.25 mg/kg; for Palmitate:Stearate Ratio in Tears: day 15, mean
Excerpt: The goal of this study was to determine the effect of dosage amounts of Compounds 1 and 2 on tear composition.
Thirty New Zealand white rabbits weighing approximately 3 lbs were allowed to acclimate for two weeks before the start of the study Animals were weighed on day 0 of the study, randomized according to body weight and allotted to the following orchiectomized (ORX) dose groups:
Surgeries for the study were staggered to limit the maximum number of surgeries per day to six. One animal from each group was entered into the study every day and castration was performed as described below. Animals were premedicated with glycopyrrolate (0.02 mg/kg) and anesthesia was induced with a combination of ketamine (15 mg/kg): medetomidine (0.25 mg/kg). Anesthesia was maintained with isoflurane (1 liter/hr). Orchiectomy was performed using a scrotal incision. Animals were reversed from anesthesia using atipamezole (1 mg/kg) SQ. Analgesia was provided with buprenorphine (0.05 mg/kg) SQ immediately after the animal's regained sternal recumbency.
(§1) Immediately after recovery from anesthesia, the animals were dosed with the appropriate test articles as indicated above. Drug dosing was performed once daily for 14 d. Blood samples were collected on day 11 of dosing at 0, 30, 60, 120, 240 and 1440 minutes post administration and to plasma separated for LCMS analysis of parent drug concentrations. Tears were collected using Schirmer tear strips (Alcon, Tex.) on day 0 before surgery and 24 hours after the last administration of drug (day 15). The tears were stored at −80° C. until shipment for lipid analysis. Lipids were hydrolyzed, extracted from the Schirmer strips, derivatized, and subjected to GC-FID to evaluate the lipid composition. The samples were evaluated for the presence of 28 saturated and unsaturated fatty acids that included methyl caprate (C10:0), methyl laurate (C12:0), methyl 11-dodecenoate (C12:1), methyl myri state (C14:0), methyl myristoleate (C14:1), methyl palmitate (C16:0), methyl palmitoleate (C16:1), methyl stearate (C18:0), methyl oleate (C18:1), methyl vaccenate (C18:1), methyl linoleate (C18:2), methyl gamma linoleate (C18:3), methyl linoleate (C18:3), methyl arachidate (C20:0), methyl 11-eicosenoate (C20:1), methyl 11,14 eicosadinoate (C20:2), methyl 8,11,14 eicosatrienoate (C20:3), methyl eicosapentaenoate (C20:5), methyl behenate (C22:0), methyl erucate (C22:1), methyl 13,16 docosaenoate (C22:2), methyl docosatetraenoate (C22:4), methyl docosapentaenoate (C22:5), methyl docosahexaenoate (C22:6), methyl lignocerate and (C24:0), methyl nervonate (C24:1). Area under the curve for each individual peak was determined using the GC ChemStation software. To normalize for the tear content, the lipid composition was expressed as a ratio of the lipid that was most affected by castration (palmitate) to one which remained relatively constant (stearate).
At the end of the study, the animals were euthanatized. The harderian and Meibomian glands were collected for lipid analysis and snap frozen using an ethanol: dry ice bath. Samples were stored at −80 C until ready to ship for analysis.
Lipids in rabbit tears are derived from secretions of the harderian and Meibomian glands. Lipid content in the glands was assayed using GCMS. […] The lipid ratio was increased by more than 2-fold by Compound 1 (1.25 mg/kg), while the effect of Compound 2 was even greater with an almost 3-fold increase in the lipid ratio seen at the highest dose tested (1.25 mg/kg).

[2] = Pharmacokinetic analysis of rabbit plasma after topical dosing, Example 5; type: in vivo; settings: for Amount of drug absorbed into systemic circulation at lower doses compared to exposure at 2.5 mg/kg: lower topical doses vs 2.5 mg/kg (Table 6); for AUC: rabbit, plasma, topical or ocular, day 11, read-out: Systemic AUC
Description: as §1
Plasma samples collected after dosing were analyzed using an LCMS/MS method. Briefly, plasma samples were prepared by protein precipitation extraction. (S)—N-(4-Cyano-3-(trifluoromethyl)phenyl)-3-(4-chlorophenoxy)-2-hydroxy-2-methylpropanamide was used as internal standard. The analysis of Compound 1 and Compound 2 was performed using an LC-MS/MS system consisting of an Agilent 1100 HPLC with an MDS/Sciex 4000 Q-Trap™ mass spectrometer. The separation was achieved using a C18 analytical column (Alltima™, 2.1×100 mm, 3 μm) protected by a C18 guard column (SecurityGuard™ 4.0×2.0 mm ID, Phenomenex). Mobile phase consisted of 60% acetonitrile, 40% water and 0.1% formic acid. Mobile phase was delivered at a flow rate of 0.3 mL/min Multiple reaction monitoring (MRM) scans were performed using curtain gas and a source temperature of 500° C. Molecular ions were formed using an ion spray voltage of −4500 V. Product ions were formed in nitrogen gas at a declustering potential of −55 V (Compound 1), −64 V (Compound 2), and −78 V (Internal standard) and collision energy of −24.0 V (Compound 1, m/z 388.0→117.9), −26.0 V (Compound 2, m/z 406.1→135.9), and −22.4 V (Internal standard, m/z 396.9→241.0). The plasma concentration—time data were analyzed by non-compartmental methods using WinNonlin (Version 3.1, Pharsight Corporation, Mountain View, Calif., USA). The area under the plasma concentration—time curve from time zero to infinity (AUC) was calculated by the trapezoidal rule with extrapolation to time infinity.
Systemic exposures after topical administration of the blood was determined in peripheral blood samples obtained at 30, 60, […], 240 and 1440 minutes after drug administration on day 11 of the study.

[3] = Plasma concentration of Compound 2 after topical or subcutaneous dosing, Example 3; type: in vivo, rabbit; settings: one hour after last dose, LCMS
Description: Drug dosing was done once daily for 14 days. Blood was collected at 60 minutes post administration of the last dose of drug and plasma separated for HPLC analysis of parent drug concentrations.
To normalize for the tear content, the lipid composition was expressed as a ratio of the lipid that was most affected by castration (palmitate) to one which remained relatively constant (stearate). Blood was also collected on day 15 (24 hours after last drug administration) of the study, plasma separated and analyzed for Compound 2.
Systemic exposures after topical and subcutaneous administration were determined in peripheral blood samples collected one hour after drug administration on the last day of the study. Plasma concentrations of Compound 2 were measured using LCMS. Mean plasma concentrations of Compound 2 following topical administration were 1177±398.72 nM, while mean levels were 1210±311.93 nM in animals that received subcutaneous (SQ) doses.

In the case of C[C@](O)(COc1ccc(C#N)cc1)C(=O)Nc1ccc(C#N)c(C(F)(F)F)c1 [Compound 1, (S)—N-(4-Cyano-3-(trifluoromethyl)phenyl)-3-(4-cyanophenoxy)-2-hydroxy-2-methylpropanamide], the “Palmitate:stearate ratio in Meibomian gland” value ([1]; topical 0.625 mg/kg) is reported as 3.29, the “Palmitate:stearate ratio in harderian gland” value ([1]; topical 0.625 mg/kg) is reported as 3.45^a,b and the “Palmitate:stearate ratio in Meibomian gland” value ([1]; topical 1.25 mg/kg) is reported as 3.68. The “Palmitate:stearate ratio in harderian gland” value ([1]; topical 1.25 mg/kg) was 4.87^a,b, the “Increase of lipid (palmitate:stearate) ratio in harderian glands” value [1] was “more than 2 fold” and the “Change in Meibomian gland lipids” value [1] was “No statistically significant change”. The “Dose dependence of palmitate:stearate ratio in harderian glands” value [1] was “dose dependent increase”, the “Dose dependence of palmitate:stearate ratio in tears” value [1] was “no significant dose dependent changes” and the “Amount of drug absorbed into systemic circulation at lower doses compared to exposure at 2.5 mg/kg” value [2] was “⅛^th”. For the same compound, the AUC ([2]; 0.625 mg/kg, topical 0.625 mpk) was 2.87 µM·h and the AUC ([2]; 1.25 mg/kg, topical 1.25 mpk) was 3.99 µM·h.

In the case of C[C@](O)(COc1ccc(C#N)c(F)c1)C(=O)Nc1ccc(C#N)c(C(F)(F)F)c1 [Compound 2, (S)—N-(4-cyano-3-(trifluoromethyl)phenyl)-3-(4-cyano-3-fluorophenoxy)-2-hydroxy-2-methylpropanamide], the concentration at 1 h ([3]; rabbit, plasma, subcutaneous 2.5 mg/kg) is reported as 1210 ± 312 nM, the concentration at 1 h ([3]; rabbit, plasma, topical 2.5 mg/kg) is reported as 1180 ± 399 nM and the concentration at 1 h ([3]; subcutaneous 2.5 mg/kg) is reported as 1210 nM. The concentration at 1 h ([3]; topical 2.5 mg/kg) was 1177 nM, the “Palmitate:Stearate Ratio in Tears” value ([1]; topical 0.625 mg/kg once daily 14 d) was 2.67^a,b and the “Palmitate:stearate ratio in Meibomian gland” value ([1]; topical 0.625 mg/kg) was 3.36. The “Palmitate:stearate ratio in harderian gland” value ([1]; topical 0.625 mg/kg) was 6.09^a,b, the “Palmitate:Stearate Ratio in Tears” value ([1]; topical 1.25 mg/kg once daily 14 d) was 3.93^a,b and the “Palmitate:stearate ratio in Meibomian gland” value ([1]; topical 1.25 mg/kg) was 3.31. For the same compound, the “Palmitate:stearate ratio in harderian gland” value ([1]; topical 1.25 mg/kg) was 5.30^a,b, the “Increase of lipid (palmitate:stearate) ratio in harderian glands” value [1] was about 3 fold and the “Change in Meibomian gland lipids” value [1] was “No statistically significant change”. The “Dose dependence of palmitate:stearate ratio in harderian glands” value [1] was “dose dependent increase”, the “Dose dependence of palmitate:stearate ratio in tears” value [1] was “dose dependent increase” and the “Amount of drug absorbed into systemic circulation at lower doses compared to exposure at 2.5 mg/kg” value [2] was “¼^th”. It also gave an AUC ([2]; 0.625 mg/kg, topical 0.625 mpk) of 3.2 µM·h and an AUC ([2]; 1.25 mg/kg, topical 1.25 mpk) of 6.92 µM·h.
